For 19 compounds, IC50 results are on record in patent publication US20230117470A1, “SUBSTITUTED PYRAZOLE COMPOUNDS AS TOLL RECEPTOR INHIBITORS” (BRISTOL-MYERS SQUIBB COMPANY, priority 2019, published 2023).

What all share (assay type): cell-based
The target of one assay is T1, human TLR8 (Homo sapiens, UniProt Q9NR97).
T1 construct: host or cells: HEK-Blue cells
T1 sequence (Q9NR97 27-1041): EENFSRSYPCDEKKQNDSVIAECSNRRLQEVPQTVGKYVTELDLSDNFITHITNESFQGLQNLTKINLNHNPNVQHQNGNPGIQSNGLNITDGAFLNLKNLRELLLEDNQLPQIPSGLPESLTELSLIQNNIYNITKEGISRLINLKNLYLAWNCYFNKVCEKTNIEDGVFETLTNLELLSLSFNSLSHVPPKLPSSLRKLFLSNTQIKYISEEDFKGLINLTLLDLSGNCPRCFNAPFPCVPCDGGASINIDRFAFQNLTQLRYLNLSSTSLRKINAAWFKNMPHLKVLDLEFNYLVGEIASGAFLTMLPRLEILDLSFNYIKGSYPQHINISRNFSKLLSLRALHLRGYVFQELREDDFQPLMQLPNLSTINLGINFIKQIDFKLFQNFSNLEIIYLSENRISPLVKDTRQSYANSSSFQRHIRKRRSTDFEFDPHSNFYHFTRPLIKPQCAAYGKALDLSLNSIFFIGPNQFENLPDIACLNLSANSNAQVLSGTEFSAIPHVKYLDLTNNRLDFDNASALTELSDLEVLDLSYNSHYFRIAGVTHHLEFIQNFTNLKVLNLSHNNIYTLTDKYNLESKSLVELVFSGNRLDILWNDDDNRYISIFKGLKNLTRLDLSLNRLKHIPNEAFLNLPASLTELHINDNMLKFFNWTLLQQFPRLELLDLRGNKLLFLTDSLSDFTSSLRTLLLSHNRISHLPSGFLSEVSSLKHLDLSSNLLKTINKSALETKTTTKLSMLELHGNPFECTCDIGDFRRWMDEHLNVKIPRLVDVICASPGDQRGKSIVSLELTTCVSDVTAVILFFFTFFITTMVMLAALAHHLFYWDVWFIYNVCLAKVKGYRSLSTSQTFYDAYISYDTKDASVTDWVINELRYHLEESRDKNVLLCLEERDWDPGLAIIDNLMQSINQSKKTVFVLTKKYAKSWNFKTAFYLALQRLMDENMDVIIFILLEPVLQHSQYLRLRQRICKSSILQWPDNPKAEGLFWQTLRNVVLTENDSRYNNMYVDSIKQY
Nature of the assay: TLR8 inhibition reporter assay (HEK-Blue cells, SEAP reporter, R848 stimulation). The conditions noted are these: HEK-Blue cells overexpressing human TLR8, SEAP reporter, R848 15.9 μM. Summed up:
(§1)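 30 min RT cpd pre-incubation (0.05 nM–50 μM final dose response) → agonist: gardiquimod 7.5 μM / R848 15.9 μM / ODN2006 5 nM for TLR7/8/9 resp. → 22 h, 37° C → SEAP via detection medium. % inhibition vs agonist+DMSO and reference inhibitor controls.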
Background: In a reporter assay the amount or activity of a reporter protein is the signal.

Another assay concerns the target T2, human TLR7 (Homo sapiens, UniProt Q9NYK1).
T2 construct: host or cells: HEK-Blue cells
T2 sequence (Q9NYK1 27-1049): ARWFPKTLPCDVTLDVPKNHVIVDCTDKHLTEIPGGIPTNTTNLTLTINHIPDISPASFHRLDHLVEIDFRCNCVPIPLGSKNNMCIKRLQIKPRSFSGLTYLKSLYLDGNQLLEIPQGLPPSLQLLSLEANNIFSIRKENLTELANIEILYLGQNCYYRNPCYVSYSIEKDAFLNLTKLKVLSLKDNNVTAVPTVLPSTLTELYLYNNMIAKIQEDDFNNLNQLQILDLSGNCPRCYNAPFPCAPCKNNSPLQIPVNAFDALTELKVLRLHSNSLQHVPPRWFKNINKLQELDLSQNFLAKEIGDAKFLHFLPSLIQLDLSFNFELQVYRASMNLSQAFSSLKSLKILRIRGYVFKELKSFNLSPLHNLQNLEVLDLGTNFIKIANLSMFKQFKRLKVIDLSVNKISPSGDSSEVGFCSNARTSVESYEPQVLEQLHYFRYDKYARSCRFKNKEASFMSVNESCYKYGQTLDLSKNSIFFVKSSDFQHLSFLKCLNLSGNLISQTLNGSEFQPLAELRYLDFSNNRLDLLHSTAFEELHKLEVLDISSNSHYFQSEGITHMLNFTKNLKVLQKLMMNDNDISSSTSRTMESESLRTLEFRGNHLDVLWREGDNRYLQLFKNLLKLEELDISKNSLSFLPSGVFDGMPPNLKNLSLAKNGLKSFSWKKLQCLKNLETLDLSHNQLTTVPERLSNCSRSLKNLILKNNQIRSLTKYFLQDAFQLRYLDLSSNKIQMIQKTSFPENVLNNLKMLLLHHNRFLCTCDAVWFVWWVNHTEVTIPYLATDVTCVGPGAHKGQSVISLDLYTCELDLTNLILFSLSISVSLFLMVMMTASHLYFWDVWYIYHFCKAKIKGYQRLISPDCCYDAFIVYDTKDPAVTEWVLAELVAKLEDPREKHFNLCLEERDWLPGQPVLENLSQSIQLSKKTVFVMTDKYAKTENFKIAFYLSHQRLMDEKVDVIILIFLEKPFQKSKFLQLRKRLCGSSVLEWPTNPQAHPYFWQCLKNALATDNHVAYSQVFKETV
Nature of the assay: TLR7 inhibition reporter assay (HEK-Blue cells, SEAP reporter, gardiquimod stimulation). The conditions noted are these: HEK-Blue cells overexpressing human TLR7, SEAP reporter, gardiquimod 7.5 μM. Summed up:
as §1

The next assay has as its target T3, human TLR9 (Homo sapiens, UniProt Q9NR96).
T3 construct: host or cells: HEK-Blue cells
T3 sequence (Q9NR96 26-1032): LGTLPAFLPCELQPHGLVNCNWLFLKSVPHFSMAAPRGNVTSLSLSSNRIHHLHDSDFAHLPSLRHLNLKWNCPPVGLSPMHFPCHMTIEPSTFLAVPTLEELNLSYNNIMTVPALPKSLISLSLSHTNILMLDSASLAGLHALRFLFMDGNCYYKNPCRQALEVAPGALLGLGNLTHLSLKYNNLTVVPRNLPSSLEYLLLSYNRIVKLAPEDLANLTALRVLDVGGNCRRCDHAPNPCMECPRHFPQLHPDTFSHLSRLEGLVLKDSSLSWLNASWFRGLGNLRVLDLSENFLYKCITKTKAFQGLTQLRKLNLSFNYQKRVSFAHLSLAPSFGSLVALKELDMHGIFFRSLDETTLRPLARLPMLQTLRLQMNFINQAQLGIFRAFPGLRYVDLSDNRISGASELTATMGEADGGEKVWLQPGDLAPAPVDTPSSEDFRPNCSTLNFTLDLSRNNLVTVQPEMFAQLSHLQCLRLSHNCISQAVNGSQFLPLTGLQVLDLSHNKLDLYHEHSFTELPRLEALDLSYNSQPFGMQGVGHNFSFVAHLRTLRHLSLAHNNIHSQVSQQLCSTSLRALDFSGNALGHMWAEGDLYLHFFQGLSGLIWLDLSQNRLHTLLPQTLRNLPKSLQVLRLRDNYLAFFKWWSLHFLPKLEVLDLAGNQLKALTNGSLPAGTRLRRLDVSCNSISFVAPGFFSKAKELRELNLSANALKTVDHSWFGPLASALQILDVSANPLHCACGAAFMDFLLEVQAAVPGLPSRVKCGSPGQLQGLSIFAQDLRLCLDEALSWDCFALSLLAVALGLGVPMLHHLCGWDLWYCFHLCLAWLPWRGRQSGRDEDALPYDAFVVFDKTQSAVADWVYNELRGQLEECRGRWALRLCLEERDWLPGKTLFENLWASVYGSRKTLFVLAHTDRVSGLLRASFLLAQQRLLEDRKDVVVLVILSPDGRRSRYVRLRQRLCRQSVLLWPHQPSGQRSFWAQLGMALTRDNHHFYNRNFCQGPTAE
The assay can be described thus: TLR9 inhibition reporter assay (HEK-Blue cells, SEAP reporter, ODN2006 stimulation). The conditions noted are these: HEK-Blue cells overexpressing human TLR9, SEAP reporter, ODN2006 5 nM. Summed up:
as §1

The structures appear in SMILES notation. Where only a bound is given, the exact number is not on record here.

A word on the IC50: it is the concentration that gives 50% inhibition. A low value points to greater potency in that assay.

Regarding `Cc1cc(-c2[nH]nc(C(=O)N3CCC(N)CC3)c2C(C)C)cn2ncnc12` [Example 55], the results for the IC50 against human TLR8, on human TLR7 and against human TLR9 were 1.15 nM, 2.99 nM and above 50000 nM, respectively.

On to `Cc1cc(-c2[nH]nc(C3CCC(N(C)C(=O)C4CNC4)CC3)c2C(C)C)cn2ncnc12` (stereo not drawn) [compound 301], for which the IC50 at human TLR8 is 1.53 nM; against human TLR7, 7.77 nM; at human TLR9 it was 12300 nM.

Consider `Cc1cc(-c2[nH]nc(C(=O)NC3CCC(NCC(C)(C)C)CC3)c2C(C)C)cn2ncnc12` (stereo not drawn) [Example 131], for which the IC50 came out at 32.6 nM at human TLR8, 7.48 nM against human TLR7 and 10900 nM at human TLR9.

Turning to `Cc1cc(-c2[nH]nc(C(=O)NC3CCN(CCC(C)(C)C)CC3)c2C(C)C)cn2ncnc12` [Example 75], the values for the IC50 against human TLR8, at human TLR7 and on human TLR9 were 7.55 nM, 0.89 nM and 3390 nM, respectively.

On to `Cc1cc(-c2[nH]nc(C(=O)NC3CCN(CC4CCOC4)CC3)c2C(C)C)cn2ncnc12` (stereo not drawn) [Example 72], for which the IC50 is 4.75 nM on human TLR8, 1.23 nM at human TLR7 and 7220 nM on human TLR9.

`Cc1cc(-c2[nH]nc(C(=O)N3CCC(N(C)C)CC3)c2C(C)C)cn2ncnc12` [Example 13]: the figures for the IC50 against human TLR8, on human TLR7 and on human TLR9 were 2.03 nM, 5.04 nM and 3330 nM, respectively.

Take `CNC(=O)CN1CCC(c2n[nH]c(-c3cc(C)c4ncnn4c3)c2C(C)C)CC1` [Example 211, 2-(4-(4-isopropyl-5-(8-methyl-[1,2,4]triazolo[1,5-a]pyridin-6-yl)-1H-pyrazol-3-yl)piperidin-1-yl)-N-methylacetamide]: the figures for the IC50 against human TLR8, on human TLR7 and against human TLR9 were 0.58 nM, 0.79 nM and 14300 nM, respectively.

With `Cc1cc(-c2[nH]nc(-c3ccc4c(c3)CCN(C(=O)CN(C)C)C4)c2C(C)C)cn2ncnc12` [Example 268, 2-(dimethylamino)-1-(6-(4-isopropyl-5-(8-methyl-[1,2,4]triazolo[1,5-a]pyridin-6-yl)-1H-pyrazol-3-yl)-3,4-dihydroisoquinolin-2(1H)-yl)ethan-1-one], the IC50 at human TLR8 is 65.1 nM; against human TLR7 it was 41.1 nM; against human TLR9, above 50000 nM.

Take `COc1cc(-c2[nH]nc(-c3ccc(C4CCN(CC(=O)N(C)C)CC4)cn3)c2C(C)C)cn2ncnc12` [Example 389, 2-(4-(6-(4-isopropyl-5-(8-methoxy-[1,2,4]triazolo[1,5-a]pyridin-6-yl)-1H-pyrazol-3-yl)pyridin-3-yl)piperidin-1-yl)-N,N-dimethylacetamide]: the values for the IC50 on human TLR8, on human TLR7 and on human TLR9 were 168 nM, 50.3 nM and 37100 nM, respectively.

For `COc1cc(-c2[nH]nc(-c3cnc(C4CCN(C)CC4)cn3)c2C(C)C)cn2ncnc12` [Example 381], the IC50 against human TLR8 was 9.06 nM; at human TLR7 it was 11.1 nM; against human TLR9 it was 5880 nM.

Take `Cc1cc(-c2[nH]nc(C(=O)N[C@H]3CC[C@@H](NCC4CCCC4)CC3)c2C(C)C)cn2ncnc12` [Example 94]: the IC50 was 3.14 nM against human TLR8, 1.94 nM against human TLR7 and 40700 nM against human TLR9.

Consider `Cc1cc(-c2[nH]nc(C(=O)N(C)CCC#N)c2C(C)C)cn2ncnc12` [Example 16], for which the IC50 is 2.74 nM against human TLR8, 3.09 nM on human TLR7 and 43500 nM on human TLR9.

Regarding `CCN1CCC(c2cnc(-c3n[nH]c(-c4cc(C)c5ncnn5c4)c3C(C)C)nc2)CC1` [Example 369], the IC50 was determined as 33 nM at human TLR8, 18 nM against human TLR7 and 46900 nM on human TLR9.

Turning to `Cc1cc(-c2[nH]nc(-c3cnc4c(c3)CNCC4)c2C(C)C)cn2ncnc12` [Example 230], the IC50 against human TLR8 came to 1.5 nM; at human TLR7, 4.92 nM; on human TLR9, 43500 nM.

For the compound `Cc1cc(-c2[nH]nc(-c3ccc(C(N)=O)cc3)c2C(C)C)cn2ncnc12` [Example 229], the IC50 on human TLR8 was determined as 3.71 nM; against human TLR7, 7.1 nM; at human TLR9, 4960 nM.

With `Cc1cc(-c2[nH]nc(C(=O)N[C@H]3CC[C@@H](NC(C)C(C)(C)C)CC3)c2C(C)C)cn2ncnc12` (stereo partly drawn) [Example 150], the half-maximal inhibitory concentration (IC50) against human TLR8 was determined as 0.39 nM; against human TLR7, 0.57 nM; against human TLR9 it was 2830 nM.

As to `CCCN1CC(c2ccc(-c3n[nH]c(-c4cc(OC)c5ncnn5c4)c3C(C)C)cc2)C1` [Example 330], the IC50 was determined as 1.5 nM on human TLR8, 8.34 nM against human TLR7 and 11400 nM against human TLR9.

On to `COc1ncc(CN[C@H]2CC[C@@H](NC(=O)c3n[nH]c(-c4cc(C)c5ncnn5c4)c3C(C)C)CC2)cn1` [Example 96], for which the IC50 amounted to 0.98 nM on human TLR8, 1.53 nM on human TLR7 and 7770 nM against human TLR9.

For `Cc1cc(-c2[nH]nc(-c3nc4c(s3)CN(CC(C)(C)O)CC4)c2C(C)C)cn2ncnc12` [Example 265], the IC50 against human TLR8 turned out to be 3.29 nM; against human TLR7, 14 nM; against human TLR9 it was 47700 nM.
